Data: patent US20050250853A1, “Beta-tubulin inhibitors” (priority 1999, published 2005)
Entries after “also recorded” stand apart in the source; their conditions may differ. Like-named read-outs stand apart in the source and are kept apart here. Marks after values point to notes of the source that are not given here.

Columns and labels:
CHO VV 3-2 cells = test: MTT cytotoxicity on vinblastine- and colchicine-resistant CHO cells expressing mutated tubulin; type: cell-based, Chinese hamster; conditions: Cricetulus griseus, CHO-VV 3-2, 120 h, read-out: IC50 CHO VV 3-2
Experimental: (§1) Human breast carcinoma cell line, MDA-MB-231, was obtained from the American Type Culture Collection (ATCC HTB-26; Bethesda, Md.). MDA-MB-231 cells were grown in RPMI 1640 medium supplemented with 10% bovine calf serum (Hyclone, Road Logan, Utah). […] These cells were cultured in RPMI 1640 containing 10% fetal bovine serum. SK—N—SH human neuroblastoma cells, (ATCC HTB-11; Bethesda, Md.) were cultured in MEM medium supplemented with 2 mM L-glutamine, 1.5 g/liter sodium bicarbonate, 0.1 mM non-essential amino acids, 1 mM sodium pyruvate and 10% fetal bovine serum. Cells were cultured in a humidified atmosphere at 37° C. in 5% CO2.
(§2) Cytotoxicity was assessed using the MTT assay (3-(4,5-dimethylthiazol-2-yl)-2,5-diphenyltetrazolium bromide) as described by Carmichael et al. (12).
(§3) The cytotoxicity of 4-tBCEU, 4-iPCEU and 4-sBCEU in two CHO cell lines having differential sensitivity to antmicrotubule agents was evaluated. These cell lines are derived from parental CHO-10001 cells and express mutated tubulins.

MDA-MB-231 cells [1] = test: cells; type: cell-based, human; conditions: for IC50: MTT assay, mean ± SD, read-out: IC50 (μM) MDA-MB-231
Experimental: (§4) Human breast carcinoma cell line, MDA-MB-231, was obtained from the American Type Culture Collection (ATCC HTB-26; Bethesda, Md.). MDA-MB-231 cells were grown in RPMI 1640 medium supplemented with 10% bovine calf serum (Hyclone, Road Logan, Utah). Wild-type Chinese Hamster Ovary cells (CHO-10001) (7), colchicine- and vinblastine-resistant (CHO-VV 3-2) (8) and taxol-resistant (CHO-TAX 5-6) cells (9) were generously provided by Dr. Fernando Cabral (University of Texas Medical School, Houston, Tex.). These cells were cultured in RPMI 1640 containing 10% fetal bovine serum. SK—N—SH human neuroblastoma cells, (ATCC HTB-11; Bethesda, Md.) were cultured in MEM medium supplemented with 2 mM L-glutamine, 1.5 g/liter sodium bicarbonate, 0.1 mM non-essential amino acids, 1 mM sodium pyruvate and 10% fetal bovine serum. Cells were cultured in a humidified atmosphere at 37° C. in 5% CO2.
as §2

[2] = test system: CHO 10001 cells (wild-type); test: MTT cytotoxicity on wild-type CHO cells; type: cell-based, Chinese hamster; conditions: Cricetulus griseus, CHO10001, 120 h, read-out: IC50 CHO 10001
Experimental: as §1, §2, §3

MDA-MB-231 cells [3] = test: Cell cycle analysis by propidium iodide flow cytometry; type: cell-based, human; conditions: for speed of induction of cell cycle arrest in G2+M compared with 4-tBCEU: 30 μM, 24 or 48 h; for accumulation of cells in G2+M: CEU derivatives at 30 μM, 24 h, flow cytometry
Experimental: FIG. 1. Effect of CEU derivatives on cell cycle. Exponentially growing MDA-MB-231 cells were incubated in the absence or presence of 30 μM of either 4-tBCEU, 4-iPCEU or 4-sBCEU for 24 and 48 h, respectively, at 37° C. The cell cycle was evaluated using propidium iodide staining and flow cytometric analysis. Data are representative of three independent experiments.
Following incubation of MDA-MB-231 cells with 4-tBCEU, 4-iPCEU or 4-sBCEU, the cells were harvested, resuspended in 1 ml PBS and fixed by the addition of 2.4 ml of ice cold anhydrous ethanol. Then, 5×10^5 cells from each sample were centrifuged for 3 min at 1000×g. Cell pellets were resuspended in PBS containing 50 μg/ml of PI and 40 U/ml of ribonuclease A (Boehringer Mannheim, Laval, Calif.). Mixtures were incubated at room temperature for 30 min and cell cycle distribution was analyzed using an Epics Elite ESP flow cytometer (Coulter Corporation, Miami, Fla., USA).
The effect of CEU, namely 4-tBCEU, 4-PCEU and 4-sBCEU, on the cell cycle was analyzed. To this end, exponentially growing MDA-MB-231 cells were treated with 30 μM 4-tBCEU, 4-iPCEU or 4-sBCEU for 24 or 48 h followed by an evaluation of cell cycle distribution by flow cytometry using propidium iodide, a fluorescent DNA dye. […] Induction of mitosis blockage in prophase by CEU derivatives was confirmed by mitotic index analysis as described by Drouin (22).

CHO TAX 5-6 cells = test: MTT cytotoxicity on taxol-resistant CHO cells expressing mutated tubulin; type: cell-based, Chinese hamster; conditions: Cricetulus griseus, CHO-TAX 5-6, 120 h, read-out: IC50 CHO TAX 5-6
Experimental: as §1, §2, §3

[4] = Kinetics of alkylation of 4-(4-nitrobenzyl)pyridine (colorimetric assay); type: physicochemical; conditions: 80° C., pH 4.3, absorbance at 570 nm, linear regression, mean ± SD
Experimental: The rate constant of alkylation (K′) of CEU derivatives and chlorambucil was evaluated by a […] assay as described by Bardos et al (13). Briefly, 1 ml of a 10% (v/v) solution of 4-(4-nitrobenzyl)pyridine in ethanol and 1 ml of 50 mM sodium acetate (pH 4.3) were added to an ethanol solution (95%) containing 400 nmol per ml of either chlorambucil or CEU and heated to 80° C. in a shaking water bath for 60, 90, 120 or 150 min. The reaction was stopped by cooling the mixtures on ice for 5 min. Then, 1.5 ml of 0.1 M KOH: ethanol (1:2, v/v) were added to the reaction mixture. Samples were vortexed for 12 sec and set aside for 2.5 min prior to reading the absorbance at 570 nm. The values were compared with those obtained using a blank sample containing all reagents except the alkylating agent.

β-tubulin [5] = test: Separation of soluble and polymerized tubulins, Western blot of β-tubulin; type: cell-based, human; conditions: MDA-MB-231 cells, 30 μM, 24 h and 48 h; for formation of modified β-tubulin (second immunoreactive band of lower Mr): free tubulin fraction
Experimental: FIG. 2. Effects of CEU derivatives on microtubule depolymerization. Exponentially growing MDA-MB-231 cells were incubated in the absence or the presence of 30 μM of CEU derivatives including (A) 4-tBCEU, 4-iPCEU or 4-sBCEU for 24 and 48 h respectively; (B) 2-ECEU, 3-ECEU or 4-ECEU for 24 and 48 h; and (C) 4-tBEU, 4-iPEU, 4-sBEU, 4-tBCPU, CEU or 4-methoxyCEU for 48 h. Free tubulin and microtubule fractions were isolated and analyzed by Western blot. Data are representative of three different experiments.
Separation of soluble and polymerized tubulins from MDA-MB231 cells was carried out as described by Minotti et al. (14) with minor modifications. Briefly, after drug exposure, about 5×10^6 cells in 100-mm petri dishes were washed with PBS at 37° C. and harvested in 3 ml of PBS containing 0.4 μg/ml of taxol using a rubber policeman.
Cells were centrifuged and lysed using 250 μl of microtubule-stabilizing buffer (20 mM Tris-HCl, pH 6.8, 140 mM NaCl, 1 mM MgCl2, 2 mM EDTA, 0.5% Nonidet P-40 and 0.4 μg/ml taxol), and then transferred to 1.5 ml microcentrifuge tubes. Samples were centrifuged at 12,000×g for 10 min at 4° C. and the supernatants containing soluble tubulin were placed in separate microcentrifuge tubes containing 250 μl of 2× Laemmli sample buffer (15). Pellets containing the polymerized tubulin were resuspended in 250 μl of water, followed by two freeze/thawing cycles, and the addition of 250 μl of 2× Laemmli sample buffer. Samples were analyzed by SDS-PAGE and immunoassay was performed as described below.
Samples (1×10^5 cells) were analyzed by 10% SDS-PAGE using the Laemmli system (15). Membranes were then incubated with PBSMT (PBS, pH 7.4, 5% fat-free dry milk and 0.1% Tween-20) for 1 h at room temperature, and then with 1:500 monoclonal anti-β-tubulin (clone TUB 2.1, Sigma) or 1:400 anti (clone no. SDL.3D10, Sigma) for 1 h. […] Membranes were washed with PBSMT and incubated with 1:2500 peroxidase-conjugated anti-mouse immunoglobulin (Amersham Canada, Oakville, Canada) in PBSMT for 30 min. Detection of the immunoblot was carried out with the ECL Western blotting detection reagent kit (Amersham Canada, Oakville, Canada).

βIII-tubulin = biological target: T1, βIII-tubulin (Homo sapiens, UniProt Q13509); test: Alkylation of βIII-tubulin in SK-N-SH cells; type: cell-based
T1 construct: SK—N—SH cells, which express significant amounts of neuronal-specific βIII-tubulin; endogenous in cells; host or cells: SK-N-SH (ATCC HTB-11)
T1 sequence (Q13509 whole entry): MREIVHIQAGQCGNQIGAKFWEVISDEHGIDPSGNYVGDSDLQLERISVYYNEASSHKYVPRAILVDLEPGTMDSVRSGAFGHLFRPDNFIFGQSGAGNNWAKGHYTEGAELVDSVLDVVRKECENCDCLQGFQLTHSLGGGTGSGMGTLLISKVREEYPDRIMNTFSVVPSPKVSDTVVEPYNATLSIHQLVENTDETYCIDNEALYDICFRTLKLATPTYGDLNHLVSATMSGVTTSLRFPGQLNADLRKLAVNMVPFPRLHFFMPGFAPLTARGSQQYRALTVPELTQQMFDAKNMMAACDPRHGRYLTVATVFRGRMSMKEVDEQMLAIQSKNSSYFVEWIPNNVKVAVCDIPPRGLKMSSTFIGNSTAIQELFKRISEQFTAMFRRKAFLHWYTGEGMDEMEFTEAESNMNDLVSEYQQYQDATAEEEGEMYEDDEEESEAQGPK
T1 sequence (P68363 whole entry partner): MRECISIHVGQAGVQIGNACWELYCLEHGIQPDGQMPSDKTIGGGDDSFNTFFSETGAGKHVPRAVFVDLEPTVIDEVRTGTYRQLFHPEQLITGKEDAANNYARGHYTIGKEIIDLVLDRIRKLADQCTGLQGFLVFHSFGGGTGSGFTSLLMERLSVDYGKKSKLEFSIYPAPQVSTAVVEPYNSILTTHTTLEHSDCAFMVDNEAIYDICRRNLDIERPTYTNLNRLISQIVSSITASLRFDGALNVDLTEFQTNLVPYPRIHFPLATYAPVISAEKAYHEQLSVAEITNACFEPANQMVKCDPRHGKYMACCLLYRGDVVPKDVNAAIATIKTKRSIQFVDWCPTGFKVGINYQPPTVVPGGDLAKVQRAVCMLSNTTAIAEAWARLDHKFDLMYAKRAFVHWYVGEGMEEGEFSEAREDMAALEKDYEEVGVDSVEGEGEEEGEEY
Experimental: FIG. 7. Localization of the site of alkylation by CEU on β-tubulin. Exponentially growing SK—N—SH cells were incubated in the absence or the presence of 30 μM and 100 μM [urea-^14C]-4-tBCEU for 24 h and 48 h, respectively. Total protein extracts were separated electrophoretically on 10% polyacrylamide gels. […] Results are representative of two independent experiments.
as §4
Samples (1×10^5 cells) were analyzed by 10% SDS-PAGE using the Laemmli system (15). […]

β-tubulin [6] = test: Protein alkylation by [urea-14C]-4-tBCEU in MDA-MB-231 cells (autoradiography, immunoblot, kinetics); type: cell-based, human
Experimental: FIG. 3. Protein alkylation induced by treatment with [urea-^14C]-4-tBCEU. (A) Post-nuclei protein extracts from MDA-MB-231 cells incubated with 30 or 100 μM of [urea-^14C]-4-tBCEU for 12 and 24 h. […] The protein extracts were analyzed by SDS-PAGE. […] Data are representative of four different experiments. The arrow points to β-tubulin.
FIG. 5. Kinetics of β-tubulin alkylation and microtubule disruption induced by [urea-^14C]-4-tBCEU. Exponentially growing MDA-MB231 cells were incubated with 30 μM [urea-^14C]-4-tBCEU for 0, 1, 4, 8, 12, 18, 24 and 48 h. (A) Free tubulin and microtubule fractions were isolated and analyzed by Western blotting; (B) [urea-^14C]-4-tBCEU-labeled proteins were visualized by autoradiography. Data are representative of three different experiments.
Cells (˜5×10^6) were incubated with 30 or 100 μM [^14C]-tBCEU for 12 or 24 h and then washed with PBS and harvested by scraping in lysis buffer (5 mM Hepes pH 7.4, 1 mM MgCl2, 10 mM KCl, 1 mM CaCl2, 1 mM PMSF, 1 mM benzamidine and 1 mM aprotinin). Cell lysates were homogenized using a tissue grinder and the final sucrose concentration of each sample was adjusted to 250 mM. Samples were centrifuged at 600×g for 10 min at 4° C. to isolate the post-nuclear supernatant. The pellets, containing nuclei and intact cells, were discarded and the post-nuclear supernatant was recentrifuged at 90,000 rpm using a Rotor TLA-100.1 in a Beckman TL-100 ultracentrifuge for 30 min to separate the cytosolic fraction (C) from the insoluble fraction (M) containing the membrane components and mitochondria. One volume of 2× Laemmli sample buffer was then added to the supernatant (C) and the pellet (M) was resuspended in 200 μl of Laemmli sample buffer. Samples were boiled for 5 min and kept at −20° C. until analysis.
Samples (1×10^5 cells) were analyzed by 10% SDS-PAGE using the Laemmli system (15). Membranes were then incubated with PBSMT (PBS, pH 7.4, 5% fat-free dry milk and 0.1% Tween-20) for 1 h at room temperature, and then with 1:500 monoclonal anti-β-tubulin (clone TUB 2.1, Sigma) or 1:400 anti (clone no. SDL.3D10, Sigma) for 1 h. […]

[7] = Homo sapiens, MDA-MB-231, concentration inhibiting 50% of cell growth
[8] = concentration inhibiting 50% of cell growth

Structure (SMILES): CC(C)c1ccc(NC(=O)NCCCl)cc1 [Example 4-iPCEU, 4-iso-propyl[3-(2-chloroethyl)ureido]benzene]
- IC50 (CHO VV 3-2 cells): 7.7 ± 0.4 µM
- cytotoxicity in words (active / inactive CEU) (MDA-MB-231 cells [1]): active
- IC50 (MDA-MB-231 cells [1]; [7]): 2 µM
- IC50 (MDA-MB-231 cells [1]; [8]): 2.2 ± 0.3 µM
- IC50 [2]: 4.4 ± 0.2 µM
- speed of induction of cell cycle arrest in G2+M compared with 4-tBCEU (MDA-MB-231 cells [3]): more rapidly
- accumulation of cells in G2+M (MDA-MB-231 cells [3]): significant accumulation of cells in the G2+M
- IC50 (CHO TAX 5-6 cells): 2 ± 0.1 µM
- K′ (constant of alkylation of 4-(4-nitrobenzyl)pyridine) [4]: 3.0 ± 0.1^a
- microtubule depolymerization (β-tubulin [5]): complete microtubule depolymerization
- formation of modified β-tubulin (second immunoreactive band of lower Mr) (β-tubulin [5]): second immunoreactive band; also recorded: slighly faster than for 4-tBCEU

Structure (SMILES): CCC(C)c1ccc(NC(=O)NCCCl)cc1 (stereo not drawn) [Example 4-sBCEU, 4-sec-butyl[3-(2-chloroethyl)ureido]benzene]
- IC50 (CHO VV 3-2 cells): 8.2 ± 0.4 µM
- cytotoxicity in words (active / inactive CEU) (MDA-MB-231 cells [1]): active
- IC50 (MDA-MB-231 cells [1]; [7]): 2 µM
- IC50 (MDA-MB-231 cells [1]; [8]): 2.3 ± 0.1 µM
- IC50 [2]: 5 ± 0.2 µM
- speed of induction of cell cycle arrest in G2+M compared with 4-tBCEU (MDA-MB-231 cells [3]): more rapidly
- accumulation of cells in G2+M (MDA-MB-231 cells [3]): significant accumulation of cells in the G2+M
- IC50 (CHO TAX 5-6 cells): 2.1 ± 0.1 µM
- K′ (constant of alkylation of 4-(4-nitrobenzyl)pyridine) [4]: 3.1 ± 0.3^a
- microtubule depolymerization (β-tubulin [5]): complete microtubule depolymerization
- formation of modified β-tubulin (second immunoreactive band of lower Mr) (β-tubulin [5]): second immunoreactive band; also recorded: slighly faster than for 4-tBCEU

Structure (SMILES): CC(C)(C)c1ccc(N[14C](=O)NCCCl)cc1 [[urea-^14C]-4-tBCEU]
- alkylation of βIII-tubulin (βIII-tubulin; 30 and 100 μM, 24 h and 48 h, autoradiography): βIII-tubulin is not alkylated
- migration on SDS-PAGE of βIII-tubulin (βIII-tubulin; Western blot (FIG. 7A)): does not alter migration of the β-tubulin on SDS-PAGE
- incubation time at which modified β-tubulin appears (immunoblot) (β-tubulin [6]; 30 μM (FIG. 5A)): 12 h
- incubation time at which 14C-labeled modified β-tubulin appears (autoradiography) (β-tubulin [6]; 30 μM (FIG. 5B)): 1 to 4 h
- incubation time to complete microtubule disruption (β-tubulin [6]; 30 μM, Western blot (FIG. 5A)): 8 to 12 h
